Species: Rattus norvegicus
Assay: DrugMatrix - Regimen: Daily Repeat
Assay type: toxicity, organism-based, Sprague-Dawley
Design: regimen Daily Repeat, gender Male, age 6-8 weeks
Settings: in vivo, po, route oral GAVAGE, vehicle 100 % SALINE
[1] = 0 mg/kg, 72 h, tissue Plasma, dose level Control, time 3 day
[2] = 0 mg/kg, 120 h, tissue Blood, dose level Control, time 5 day
[3] = 0 mg/kg, 120 h, tissue Plasma, dose level Control, time 5 day
[4] = 200 mg/kg, 72 h, tissue Blood, dose level Low, time 3 day
[5] = 200 mg/kg, 72 h, tissue Plasma, dose level Low, time 3 day
[6] = 200 mg/kg, 120 h, tissue Blood, dose level Low, time 5 day
[7] = 200 mg/kg, 120 h, tissue Plasma, dose level Low, time 5 day
[8] = 600 mg/kg, 72 h, tissue Blood, dose level High, time 3 day
[9] = 600 mg/kg, 72 h, tissue Plasma, dose level High, time 3 day
[10] = 600 mg/kg, 120 h, tissue Blood, dose level High, time 5 day
[11] = 600 mg/kg, 120 h, tissue Plasma, dose level High, time 5 day

## LEAD (II) ACETATE
[1]
  ALANINE AMINOTRANSFERASE: 50.67 u/L
  ALKALINE PHOSPHATASE: 356.33 u/L
  ASPARTATE AMINOTRANSFERASE: 78.17 u/L
  BLOOD UREA NITROGEN: 14.17 mg/dL
  CARBON DIOXIDE: 31.33 mmol/L
  CHLORIDE: 98.5 MEQ/L
  CHOLESTEROL: 76.5 mg/dL
  CREATINE PHOSPHOKINASE: 248.33 u/L
  CREATININE: 0.2 mg/dL
  LACTATE DEHYDROGENASE: 107 u/L
  LIPASE: 9.83 u/L
  PHOSPHORUS: 12.8 mg/dL
  POTASSIUM: 6.75 MEQ/L
  TOTAL BILIRUBIN: 0.18 mg/dL
  TOTAL PROTEIN: 5.98 G/DL
  URIC ACID: 1.42 mg/dL
[2]
  ABSOLUTE BASOPHIL: 0 CELLS/uL
  ABSOLUTE EOSINOPHIL: 0 CELLS/uL
  ABSOLUTE LYMPHOCYTE: 8681.17 CELLS/uL
  ABSOLUTE MONOCYTE: 79.83 CELLS/uL
  ABSOLUTE SEGMENTED NEUTROPHIL: 689 CELLS/uL
  BASOPHIL: 0%
  EOSINOPHIL: 0%
  ERYTHROCYTE COUNT: 5.49 x10E6/uL
  HEMATOCRIT: 33.55%
  HEMOGLOBIN: 13.1 G/DL
  LEUKOCYTE COUNT: 9.45 x10E3/uL
  LYMPHOCYTE: 92.33%
  MEAN CORPUSCULAR HEMOGLOBIN: 23.92 pg
  MEAN CORPUSCULAR HEMOGLOBIN CONCENTRATION: 39.07 G/DL
  MONOCYTE: 0.67%
  NEUTROPHIL: 7%
  NUCLEATED RED BLOOD CELLS: 0.17 /100WBC
  PLATELET COUNT: 1001.17 x10E3/uL
[3]
  ALANINE AMINOTRANSFERASE: 49.33 u/L
  ALKALINE PHOSPHATASE: 300.33 u/L
  ASPARTATE AMINOTRANSFERASE: 83.5 u/L
  BLOOD UREA NITROGEN: 16 mg/dL
  CHLORIDE: 100.5 MEQ/L
  CHOLESTEROL: 74.33 mg/dL
  CREATINE PHOSPHOKINASE: 489.67 u/L
  CREATININE: 0.35 mg/dL
  GLUCOSE: 151 mg/dL
  LACTATE DEHYDROGENASE: 133.67 u/L
  LIPASE: 11.17 u/L
  PHOSPHORUS: 10.88 mg/dL
  POTASSIUM: 5.5 MEQ/L
  SODIUM: 145.7 MEQ/L
  TOTAL BILIRUBIN: 0.2 mg/dL
  TOTAL PROTEIN: 6.05 G/DL
  URIC ACID: 0.68 mg/dL
[4]
  ABSOLUTE BASOPHIL: 0 CELLS/uL
  ABSOLUTE EOSINOPHIL: 42 CELLS/uL
  ABSOLUTE LYMPHOCYTE: 7845 CELLS/uL
  ABSOLUTE MONOCYTE: 45.67 CELLS/uL
  ABSOLUTE SEGMENTED NEUTROPHIL: 634 CELLS/uL
  BASOPHIL: 0%
  EOSINOPHIL: 0.67%
  ERYTHROCYTE COUNT: 5.3 x10E6/uL
  HEMATOCRIT: 32.4%
  HEMOGLOBIN: 12.73 G/DL
  LEUKOCYTE COUNT: 8.57 x10E3/uL
  LYMPHOCYTE: 91.67%
  MEAN CORPUSCULAR HEMOGLOBIN: 24.1 pg
  MONOCYTE: 0.67%
  NEUTROPHIL: 7%
  NUCLEATED RED BLOOD CELLS: 0.67 /100WBC
  PLATELET COUNT: 1060.33 x10E3/uL
[5]
  ALANINE AMINOTRANSFERASE: 44.33 u/L
  ALBUMIN: 4.1 G/DL
  ALKALINE PHOSPHATASE: 338.33 u/L
  ASPARTATE AMINOTRANSFERASE: 80.67 u/L
  BLOOD UREA NITROGEN: 14 mg/dL
  CHLORIDE: 100 MEQ/L
  CHOLESTEROL: 80 mg/dL
  CREATINE PHOSPHOKINASE: 412 u/L
  CREATININE: 0.48 mg/dL
  GLUCOSE: 189.33 mg/dL
  LACTATE DEHYDROGENASE: 140.33 u/L
  LIPASE: 11.67 u/L
  PHOSPHORUS: 13.53 mg/dL
  POTASSIUM: 5.59 MEQ/L
  TOTAL BILIRUBIN: 0.13 mg/dL
  TOTAL PROTEIN: 5.93 G/DL
  URIC ACID: 1.37 mg/dL
[6]
  ABSOLUTE BASOPHIL: 0 CELLS/uL
  ABSOLUTE EOSINOPHIL: 25 CELLS/uL
  ABSOLUTE MONOCYTE: 82.67 CELLS/uL
  ABSOLUTE SEGMENTED NEUTROPHIL: 668 CELLS/uL
  BASOPHIL: 0%
  EOSINOPHIL: 0.33%
  ERYTHROCYTE COUNT: 5.28 x10E6/uL
  HEMATOCRIT: 32.07%
  HEMOGLOBIN: 12.83 G/DL
  LEUKOCYTE COUNT: 11.1 x10E3/uL
  LYMPHOCYTE: 92.67%
  MEAN CORPUSCULAR HEMOGLOBIN: 24.3 pg
  MEAN CORPUSCULAR HEMOGLOBIN CONCENTRATION: 40.03 G/DL
  MONOCYTE: 0.67%
  NEUTROPHIL: 6.33%
  NUCLEATED RED BLOOD CELLS: 0.67 /100WBC
  PLATELET COUNT: 1339.67 x10E3/uL
[7]
  ALANINE AMINOTRANSFERASE: 57.33 u/L
  ALBUMIN: 3.9 G/DL
  ALKALINE PHOSPHATASE: 297 u/L
  ASPARTATE AMINOTRANSFERASE: 91 u/L
  BLOOD UREA NITROGEN: 14.33 mg/dL
  CARBON DIOXIDE: 30 mmol/L
  CHLORIDE: 99.33 MEQ/L
  CHOLESTEROL: 71.33 mg/dL
  CREATINE PHOSPHOKINASE: 225 u/L
  CREATININE: 0.46 mg/dL
  LACTATE DEHYDROGENASE: 122 u/L
  LIPASE: 9 u/L
  PHOSPHORUS: 10.9 mg/dL
  POTASSIUM: 5.95 MEQ/L
  TOTAL BILIRUBIN: 0.13 mg/dL
  TOTAL PROTEIN: 6.23 G/DL
  URIC ACID: 0.7 mg/dL
[8]
  ABSOLUTE BASOPHIL: 0 CELLS/uL
  ABSOLUTE EOSINOPHIL: 32.67 CELLS/uL
  ABSOLUTE LYMPHOCYTE: 9967.33 CELLS/uL
  ABSOLUTE MONOCYTE: 129.67 CELLS/uL
  ABSOLUTE SEGMENTED NEUTROPHIL: 570.33 CELLS/uL
  BASOPHIL: 0%
  EOSINOPHIL: 0.33%
  ERYTHROCYTE COUNT: 5.69 x10E6/uL
  HEMATOCRIT: 34.9%
  HEMOGLOBIN: 13.73 G/DL
  LEUKOCYTE COUNT: 10.7 x10E3/uL
  LYMPHOCYTE: 92.67%
  MEAN CORPUSCULAR HEMOGLOBIN: 24.13 pg
  NEUTROPHIL: 5.67%
  NUCLEATED RED BLOOD CELLS: 0.33 /100WBC
  PLATELET COUNT: 964.67 x10E3/uL
[9]
  ALANINE AMINOTRANSFERASE: 56.67 u/L
  ALKALINE PHOSPHATASE: 262 u/L
  ASPARTATE AMINOTRANSFERASE: 84.33 u/L
  BLOOD UREA NITROGEN: 13.33 mg/dL
  CHLORIDE: 99 MEQ/L
  CREATINE PHOSPHOKINASE: 319.33 u/L
  CREATININE: 0.55 mg/dL
  LACTATE DEHYDROGENASE: 97 u/L
  LIPASE: 14.33 u/L
  PHOSPHORUS: 11.57 mg/dL
  POTASSIUM: 5.33 MEQ/L
  TOTAL BILIRUBIN: 0.1 mg/dL
  TOTAL PROTEIN: 5.83 G/DL
  URIC ACID: 0.87 mg/dL
[10]
  ABSOLUTE BASOPHIL: 0 CELLS/uL
  ABSOLUTE EOSINOPHIL: 20.67 CELLS/uL
  ABSOLUTE LYMPHOCYTE: 6898.67 CELLS/uL
  ABSOLUTE MONOCYTE: 79.33 CELLS/uL
  ABSOLUTE SEGMENTED NEUTROPHIL: 568 CELLS/uL
  BASOPHIL: 0%
  EOSINOPHIL: 0.33%
  ERYTHROCYTE COUNT: 5.67 x10E6/uL
  HEMATOCRIT: 33.33%
  HEMOGLOBIN: 12.97 G/DL
  LEUKOCYTE COUNT: 7.57 x10E3/uL
  LYMPHOCYTE: 90.67%
  MEAN CORPUSCULAR HEMOGLOBIN: 22.87 pg
  MEAN CORPUSCULAR HEMOGLOBIN CONCENTRATION: 38.93 G/DL
  MEAN CORPUSCULAR VOLUME: 58.77 fL
  MONOCYTE: 1%
  NEUTROPHIL: 8%
  NUCLEATED RED BLOOD CELLS: 0 /100WBC
  PLATELET COUNT: 1398 x10E3/uL
[11]
  ALANINE AMINOTRANSFERASE: 48 u/L
  ALBUMIN: 4 G/DL
  ALKALINE PHOSPHATASE: 286.67 u/L
  ASPARTATE AMINOTRANSFERASE: 92.67 u/L
  BLOOD UREA NITROGEN: 13.33 mg/dL
  CHOLESTEROL: 76 mg/dL
  CREATINE PHOSPHOKINASE: 510.67 u/L
  CREATININE: 0.28 mg/dL
  GLUCOSE: 157.67 mg/dL
  LACTATE DEHYDROGENASE: 162.67 u/L
  LIPASE: 11 u/L
  POTASSIUM: 4.79 MEQ/L
  TOTAL BILIRUBIN: 0.13 mg/dL
  TOTAL PROTEIN: 5.6 G/DL
  URIC ACID: 0.33 mg/dL

From ChEMBL document CHEMBL3885881, “DrugMatrix”
